We go through one substance from patent US20160279204A1, “PEPTIDES AND PHARMACEUTICAL COMPOSITIONS FOR USE IN THE TREATMENT BY NASAL ADMINISTRATION OF PATIENTS SUFFERING FROM ANXIETY AND SLEEP DISORDERS” (MAX-PLANCK-GESELLSCHAFT ZUR FÖRDERUNG DER WISSENSCHAFT E.V., priority 2011, published 2016).

Assay [1] deals with Cy3-NPS uptake in mouse brain. The assay is described as follows: Cy3-NPS uptake after ICV pre-injection of native NPS. It is filed as in vivo. The note with it: native NPS at 5 fold concentration, 10 min prior to ICV Cy3-NPS (0.2 nmol per mouse). As to the method:
The mice were sacrificed 30 min post-injection.
To clarify the mechanism of intracellular Cy3-NPS uptake, native, i.e. unlabeled, NPS at 5 fold concentration was injected unilaterally 10 min prior to ICV injection of Cy3-NPS (0.2 nmol per mouse). […] This points towards a receptor-mediated uptake mechanism, since, as shown for other neuropeptides (cf. Grady et al., 1996; Hubbard et al., 2009) pre-treatment with unlabeled agonists leads to receptor saturation, thereby antagonising the uptake of labelled agonist (here Cy3-NPS).

Another assay has as its system C57BL/6N mice. The experiment in a line: Open field after bilateral NPS injection into CA1 of the VH. Format: in vivo, mouse. To be noted: 0.1 nmol NPS each side into CA1 of VH, 30 min. As for the experimental part:
Animals were fixed in a stereotactic frame and maintained under isoflurane anesthesia (Forene® 100%, V/V; induction: 2.5%; maintenance: 1.5%; in O2; flow rate: 1 L/min). The mice received acute analgesic treatment with Metacam s.c. during surgery (0.5 mg/kg; in NaCl). 23 gauge stainless-steel guide cannulas were implanted in the CA1 region of the VH at the following coordinates: 3.1 mm posterior, ±3 mm lateral from bregma, and 2 mm ventral from the skull surface (Franklin and Paxinos, 2007). The guide cannulas were fixed with two screws and a two-component adhesive. For behavioural experiments, animals were implanted bilaterally for later bilateral injection, whereas for Cy3-NPS injections, implantation was performed unilaterally. The animals were allowed to recover for at least 6 days before starting the behavioural experiments. Substance infusions were carried out manually, on mice anesthetised by brief inhalation of isoflurane, using a 30 gauge injection cannula connected to a Tygon tube and a 10 μL Hamilton syringe. […]
Mice were injected bilaterally either with 0.1 nmol NPS in 0.5 μL ACSF for each side or with 0.5 μL of ACSF for each side. […] Animal behaviour was videotaped and relevant parameters were analysed using the tracking software ANY-maze version 4.30 (Stoelting, Wood Dale, Ill., USA). […]

Assay [2] concerns CA3-CA1 synapses of the VH. The experiment in a line: Field potential recordings in VH slices after intranasal NPS. The arrangement: species or system mouse. To be noted: for paired-pulse facilitation: interstimulus intervals 25, 50, 100, 200 ms. As to the method: Mice were then allowed to rest for 2 h before slice preparation and electrophysiological recording.
Brains were dissected and placed in ice-cold carbogenated ACSF. 350 μm horizontal slices containing the VH were prepared using a vibroslicer. Afterwards, the slices were incubated for 30 min at 34° C. and subsequently stored at room temperature. For experiments, slices were placed in a submerged recording chamber and continuously superfused with carbogenated ACSF at a flow rate of 3 mL/min. Square pulse electrical stimuli (50 μs pulse width) were delivered via a bipolar tungsten electrode (insulated to the tip, 50 μm pole diameter) that was positioned within the stratum radiatum of the CA1 region. All recordings were performed at room temperature, low-pass filtered at 1 kHz, and digitised at 5 kHz. Evoked field excitatory postsynaptic potentials (fEPSPs) were recorded using glass micro-electrodes (1 MΩ open-tip resistance), filled with ACSF and also positioned within the CA1 stratum radiatum. Stimulus intensities were adjusted in a manner to produce a fEPSP of ˜50% of that amplitude at which a population spike becomes clearly observable. Paired-pulse facilitation was measured at interstimulus intervals of 25, 50, 100, 200, and 400 ms and the paired-pulse ratio was calculated as fEPSP2 amplitude/fEPSP1 amplitude.

The test system of assay [3] is GluR1, GluR2, Glt-1, synapsin. The experiment in a line: Immunoblotting of prefrontal cortex and hippocampus lysates after intranasal NPS. It is filed as in vivo, mouse. To be noted: 24 hrs after intranasal NPS. As to the method:
Behavioural tests (open field, dark-light test and elevated plus maze (EPM)) following intranasal NPS application were performed sequentially. Each test lasted for 5 min with an inter-test interval of 5 min, as described previously (Bunck et al., 2009; Krömer et al., 2005). The animals' behaviour during testing was videotaped and relevant parameters were analysed with the tracking software ANY-maze version 4.30 (Stoelting, Wood Dale, Ill., USA). Native NPS (1 μg/μL) or vehicle (Ringer solution) were administered intranasally to the alert mouse as described above (total volume: 14 μL). Mice were tested 30 min and 4 hrs after intranasal administration of first drop. Animals were sacrificed 24 hrs after treatment and prefrontal cortex and bilateral hippocampi were prepared immediately and shock-frozen in methylbutane.
For immunoblotting, proteins were extracted from aforementioned two brain regions (prefrontal cortex and bilateral hippocampi). Quantitative blot analysis was performed using ImageJ software (http://rsbweb.nih.gov/ij/; Rasband, W. S., ImageJ, U.S. National Institutes of Health). Primary antibodies used: Glt-1, Glu-R1, Glu-R2 (all 1:100; all from Santa Cruz Biotechnology, Santa Cruz, Calif., USA), synapsin (1:2000; Synaptic Systems, Goettingen, Germany) and GAPDH (1:2000, Santa Cruz Biotechnology, Santa Cruz, Calif., USA). Secondary antibodies used: donkey anti-goat IgG-HRP (1:10000; Santa Cruz Biotechnology, Santa Cruz, Calif., USA), goat anti-rabbit IgG-HRP (1:7500, Sigma-Aldrich, St. Louis, Mo., USA) and goat anti-mouse IgG-HRP (1:25000, Sigma-Aldrich, St. Louis, Mo., USA).
Background: In western blotting, separated proteins are transferred to a membrane and probed.

Entries after “also recorded” stand apart in the source; their conditions may differ.

For “neuropeptide S (SFRNGVGSGVKKTSFRRAKQ; Neuropeptide S; UniProt P0C0P7 70-89, looked up) [NPS, peptide agonist of neuropeptide S receptor (NPSR); native NPS, rat, from Bachem]”, the “effect of pre-injection on Cy3-NPS uptake” value in assay [1] is listed as “reduced Cy3-NPS uptake throughout the brain”. In the assay on C57BL/6N mice, the “distance traveled / locomotion in the open field” value is given as “did not affect locomotion; also recorded: not changed”. Besides, in assay [2] (C57BL/6N mice), the “magnitude of LTP induced by high-frequency stimulation” value is reported as “weakened; also recorded: decreased the magnitude of LTP” and the paired-pulse facilitation entry was “weakened; also recorded: reduced paired-pulse facilitation”. In addition, in assay [2] (C57BL/6N mice, approximately 3 h after treatment), the “input-output curve (fEPSP amplitudes)” value is listed as “shift of input-output curves towards bigger fEPSP amplitudes; also recorded: shift of the input-output curve towards bigger fEPSP amplitudes”. Besides, in assay [2] (HAB mice), the “input-output curve (fEPSP amplitudes)” value was “increase; also recorded: shift of the input-output curve towards bigger fEPSP amplitudes”, the “magnitude of LTP” value was “reduction; also recorded: decreased the magnitude of LTP” and the paired-pulse facilitation entry is recorded as “reduction; also recorded: reduced paired-pulse facilitation”. The synapsin expression result in assay [3] (Bl6 mice, hippocampus versus prefrontal cortex) is reported as “significantly increased in the hippocampus only”. For the same substance, in assay [3] (Bl6 mice, hippocampus), the “GluR1, GluR2 and Glt-1 expression” value is listed as “remained unaffected”. Further, in assay [3] (Bl6 mice, prefrontal cortex), the Glt-1 expression level result is “significantly increased”, the GluR1 expression level result is given as “significantly increased” and the GluR2 expression entry is recorded as “remained unchanged”. In addition, the “protein expression changes in the hippocampus” value in assay [3] (HAB mice, hippocampus) is given as “no corresponding changes”. In addition, in assay [3] (HAB mice, prefrontal cortex), the Glt-1 levels result is given as “remained unchanged”, the GluR1 expression entry is listed as “not affected” and the GluR2 expression result was “significantly increased”.
